Data published in patent US11040035B2, “3-oxo-2,6-diphenyl-2,3-dihydropyridazine-4-carboxamides” (BAYER PHARMA AKTIENGESELLSCHAFT, priority 2016, dated 2021).

How the values were obtained:
AHR [1] = biological target: T1, AHR (Homo sapiens, UniProt P35869); test: In vitro assay 2: agonism in human cell line (transactivation assay)
T1 sequence (P35869 11-848): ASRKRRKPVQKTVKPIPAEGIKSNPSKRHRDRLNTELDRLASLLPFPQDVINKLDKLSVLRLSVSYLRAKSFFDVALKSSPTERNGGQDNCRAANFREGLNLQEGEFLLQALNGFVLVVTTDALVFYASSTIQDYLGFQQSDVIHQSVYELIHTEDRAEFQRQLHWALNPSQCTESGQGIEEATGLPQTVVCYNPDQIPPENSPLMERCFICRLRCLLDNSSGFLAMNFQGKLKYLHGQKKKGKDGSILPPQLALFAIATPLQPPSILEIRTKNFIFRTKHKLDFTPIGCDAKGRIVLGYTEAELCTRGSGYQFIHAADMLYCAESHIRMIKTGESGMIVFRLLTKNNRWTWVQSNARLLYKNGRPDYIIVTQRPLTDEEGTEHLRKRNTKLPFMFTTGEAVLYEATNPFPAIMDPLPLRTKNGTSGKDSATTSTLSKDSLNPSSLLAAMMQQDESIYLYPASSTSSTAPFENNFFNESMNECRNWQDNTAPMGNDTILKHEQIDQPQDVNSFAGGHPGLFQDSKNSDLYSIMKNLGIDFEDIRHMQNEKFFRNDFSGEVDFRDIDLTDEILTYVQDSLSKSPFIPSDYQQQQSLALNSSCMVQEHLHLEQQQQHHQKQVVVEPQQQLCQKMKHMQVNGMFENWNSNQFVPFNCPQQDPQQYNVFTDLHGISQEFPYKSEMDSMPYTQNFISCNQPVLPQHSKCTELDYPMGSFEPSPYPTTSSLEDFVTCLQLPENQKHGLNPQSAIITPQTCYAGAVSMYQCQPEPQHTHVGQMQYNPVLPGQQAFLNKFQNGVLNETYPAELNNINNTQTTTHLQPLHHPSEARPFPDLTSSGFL

AHR [2] = biological target: T1, AHR; test: In vitro assay 1: antagonism in human cell line (transactivation assay, kynurenic acid prestimulated); conditions: Assay 1: AHR-luc Hum Antagonism IC50 [M], 150 μM kynurenic acid, 20 hours, firefly luciferase
[3] = Assay 2: AHR-luc Hum Agonism IC50 [M], no kynurenic acid, 20 hours, firefly luciferase
[4] = read-out: Assay 2: AHR-luc Hum Agonism IC50, no kynurenic acid, 20 hours, firefly luciferase

Row | IC50 (AHR [1]; [3]) | IC50 (AHR [2]) | IC50 (AHR [1]; [4]) | SMILES
1 | > 2e-05 M | 2.11e-07 M |  | COCC(O)CNC(=O)c1cc(-c2ccc(C)cc2)nn(-c2cccc(F)c2)c1=O (single isomer, unassigned; enantiomer 1) [Example 17, 2-(3-Fluorophenyl)-N-(2-hydroxy-3-methoxypropyl)-6-(4-methylphenyl)-3-oxo-2,3-dihydropyridazine-4-carboxamide, Enantiomer 1]
2 |  | 3.39e-07 M | > 2e-05 M | COCC(O)CNC(=O)c1cc(-c2ccc(C)cc2)nn(-c2cccc(F)c2)c1=O (single isomer, unassigned; enantiomer 2) [Example 18, 2-(3-Fluorophenyl)-N-(2-hydroxy-3-methoxypropyl)-6-(4-methylphenyl)-3-oxo-2,3-dihydropyridazine-4-carboxamide, Enantiomer 2]
3 | > 2e-05 M | 1.74e-07 M |  | COCC(O)CNC(=O)c1cc(-c2ccc(C)cc2)nn(-c2cccc(F)c2)c1=O (stereo not drawn) [Example 16, 2-(3-Fluorophenyl)-N-(2-hydroxy-3-methoxypropyl)-6-(4-methylphenyl)-3-oxo-2,3-dihydropyridazine-4-carboxamide]
4 | > 2e-05 M | 3.02e-07 M |  | C[C@H](CO)NC(=O)c1cc(-c2ccc(Cl)cc2)nn(-c2cccc(F)c2)c1=O [Example 24, 6-(4-Chlorophenyl)-2-(3-fluorophenyl)-N-[(2R)-1-hydroxypropan-2-yl]-3-oxo-2,3-dihydropyridazine-4-carboxamide]
5 | > 2e-05 M | 8.85e-08 M |  | CC(C)C(O)CNC(=O)c1cc(-c2ccc(Cl)cc2)nn(-c2cccc(F)c2)c1=O (stereo not drawn) [Example 28, 6-(4-Chlorophenyl)-2-(3-fluorophenyl)-N-(2-hydroxy-3-methylbutyl)-3-oxo-2,3-dihydropyridazine-4-carboxamide]
6 | > 2e-05 M | 1.61e-07 M |  | COCC(O)CNC(=O)c1cc(-c2ccc(Cl)cc2)nn(-c2cccc(F)c2)c1=O (stereo not drawn) [Example 31, 6-(4-Chlorophenyl)-2-(3-fluorophenyl)-N-(2-hydroxy-3-methoxypropyl)-3-oxo-2,3-dihydropyridazine-4-carboxamide]
7 | > 2e-05 M | 1.88e-07 M |  | CC(O)CNC(=O)c1cc(-c2ccc(Cl)cc2)nn(-c2cccc(F)c2)c1=O (stereo not drawn) [Example 34, 6-(4-Chlorophenyl)-2-(3-fluorophenyl)-N-(2-hydroxypropyl)-3-oxo-2,3-dihydropyridazine-4-carboxamide]
8 | > 2e-05 M | 1.92e-07 M |  | C[C@@H](O)CNC(=O)c1cc(-c2ccc(Cl)cc2)nn(-c2cccc(F)c2)c1=O [Example 35, 6-(4-Chlorophenyl)-2-(3-fluorophenyl)-N-[(2R)-2-hydroxypropyl]-3-oxo-2,3-dihydropyridazine-4-carboxamide]
9 | > 2e-05 M | 2.95e-07 M |  | C[C@H](O)CNC(=O)c1cc(-c2ccc(Cl)cc2)nn(-c2cccc(F)c2)c1=O [Example 36, 6-(4-Chlorophenyl)-2-(3-fluorophenyl)-N-[(2S)-2-hydroxypropyl]-3-oxo-2,3-dihydropyridazine-4-carboxamide]

Continued, compound first:

Row | SMILES | IC50 (AHR [1]; [3]) | IC50 (AHR [2]) | IC50 (AHR [1]; [4])
10 | O=C(NCC(O)C(F)(F)F)c1cc(-c2ccc(C(F)(F)F)cc2)nn(-c2cccc(F)c2)c1=O (single isomer, unassigned; (-)) [Example 243] | > 2e-05 M | 3.13e-08 M | 
11 | COCCC(CO)NC(=O)c1cc(-c2ccc(C(F)(F)F)cc2)nn(-c2cccc(F)c2)c1=O (single isomer, unassigned; (-)) [Example 313, (−)-2-(3-fluorophenyl)-N-(1-hydroxy-4-methoxybutan-2-yl)-3-oxo-6-[4-(trifluoromethyl)-phenyl]-2,3-dihydropyridazine-4-carboxamide] | > 2e-05 M | 1.67e-08 M | 
12 | O=C(NC(CCO)C(F)(F)F)c1cc(-c2ccc(Cl)cc2)nn(-c2cccc(F)c2)c1=O (single isomer, unassigned; (-)) [Example 342, (−)-6-(4-chlorophenyl)-2-(3-fluorophenyl)-3-oxo-N-(1,1,1-trifluoro-4-hydroxybutan-2-yl)-2,3-dihydropyridazine-4-carboxamide] | > 2e-05 M | 4.46e-07 M | 
13 | O=C(NC(CO)C1CC1)c1cc(-c2ccc(C(F)(F)F)cc2)nn(-c2cccc(F)c2)c1=O (single isomer, unassigned; (-)) [Example 351, (−)-N-(1-cyclopropyl-2-hydroxyethyl)-2-(3-fluorophenyl)-3-oxo-6-[4-(trifluoromethyl)phenyl]-2,3-dihydropyridazine-4-carboxamide] | > 2e-05 M | 4.84e-09 M | 
14 | Cc1ccc(-c2cc(C(=O)NCC(O)C(F)(F)F)c(=O)n(-c3cccc(F)c3)n2)cc1 (single isomer, unassigned; enantiomer 1) [Example 5, 2-(3-Fluorophenyl)-6-(4-methylphenyl)-3-oxo-N-(3,3,3-trifluoro-2-hydroxypropyl)-2,3-dihydropyridazine-4-carboxamide, enantiomer 1] | > 2e-05 M | 1.65e-08 M | 
15 | Cc1ccc(-c2cc(C(=O)NCC(C)O)c(=O)n(-c3cccc(F)c3)n2)cc1 (single isomer, unassigned; enantiomer 1) [Example 14, 2-(3-Fluorophenyl)-N-(2-hydroxypropyl)-6-(4-methylphenyl)-3-oxo-2,3-dihydropyridazine-4-carboxamide, Enantiomer 1] | > 2e-05 M | 1.75e-07 M | 
16 | Cc1ccc(-c2cc(C(=O)NCC(O)C(F)(F)F)c(=O)n(-c3cccc(F)c3)n2)cc1 (single isomer, unassigned; enantiomer 2) [Example 6, 2-(3-Fluorophenyl)-6-(4-methylphenyl)-3-oxo-N-(3,3,3-trifluoro-2-hydroxypropyl)-2,3-dihydropyridazine-4-carboxamide, enantiomer 2] |  | 6.58e-08 M | > 2e-05 M
17 | Cc1ccc(-c2cc(C(=O)NCC(O)C(C)C)c(=O)n(-c3cccc(F)c3)n2)cc1 (single isomer, unassigned; enantiomer 2) [Example 12, 2-(3-Fluorophenyl)-N-(2-hydroxy-3-methylbutyl)-6-(4-methylphenyl)-3-oxo-2,3-dihydropyridazine-4-carboxamide, enantiomer 2] |  | 1.22e-07 M | > 2e-05 M
18 | Cc1ccc(-c2cc(C(=O)NCC(C)O)c(=O)n(-c3cccc(F)c3)n2)cc1 (single isomer, unassigned; enantiomer 2) [Example 15, 2-(3-Fluorophenyl)-N-(2-hydroxypropyl)-6-(4-methylphenyl)-3-oxo-2,3-dihydropyridazine-4-carboxamide, Enantiomer 2] |  | 2.62e-07 M | > 2e-05 M
19 | Cc1ccc(-c2cc(C(=O)NCC(O)C(F)(F)F)c(=O)n(-c3cccc(F)c3)n2)cc1 (stereo not drawn) [Example 4, 2-(3-Fluorophenyl)-6-(4-methylphenyl)-3-oxo-N-(3,3,3-trifluoro-2-hydroxypropyl)-2,3-dihydropyridazine-4-carboxamide] | > 2e-05 M | 2.92e-08 M | 
20 | Cc1ccc(-c2cc(C(=O)N[C@@H](C)CO)c(=O)n(-c3cccc(F)c3)n2)cc1 [Example 8, 2-(3-Fluorophenyl)-N-[(2S)-1-hydroxypropan-2-yl]-6-(4-methylphenyl)-3-oxo-2,3-dihydropyridazine-4-carboxamide] | > 2e-05 M | 3.61e-08 M | 
21 | Cc1ccc(-c2cc(C(=O)NCC(O)C(C)C)c(=O)n(-c3cccc(F)c3)n2)cc1 (stereo not drawn) [Example 10, 2-(3-Fluorophenyl)-N-(2-hydroxy-3-methylbutyl)-6-(4-methylphenyl)-3-oxo-2,3-dihydropyridazine-4-carboxamide] | > 2e-05 M | 1.2e-07 M | 
22 | Cc1ccc(-c2cc(C(=O)NCC(C)O)c(=O)n(-c3cccc(F)c3)n2)cc1 (stereo not drawn) [Example 13, 2-(3-Fluorophenyl)-N-(2-hydroxypropyl)-6-(4-methylphenyl)-3-oxo-2,3-dihydropyridazine-4-carboxamide] | > 2e-05 M | 1.43e-07 M | 
23 | O=C(NC(CO)C1CCOC1)c1cc(-c2ccc(Cl)cc2)nn(-c2cccc(F)c2)c1=O (stereo not drawn) [Example 38, 6-(4-Chlorophenyl)-2-(3-fluorophenyl)-N-[2-hydroxy-1-(tetrahydrofuran-3-yl)ethyl]-3-oxo-2,3-dihydropyridazine-4-carboxamide] | > 2e-05 M | 3.87e-08 M | 
24 | O=C(NCC(O)C(F)(F)F)c1cc(-c2ccc(Cl)cc2)nn(-c2cc(F)cc(F)c2)c1=O (stereo not drawn) [Example 44, 6-(4-Chlorophenyl)-2-(3,5-difluorophenyl)-3-oxo-N-(3,3,3-trifluoro-2-hydroxypropyl)-2,3-dihydropyridazine-4-carboxamide] | > 2e-05 M | 1.99e-08 M | 
